Measured values as given in publication PMC4786417, “Ternatin and improved synthetic variants kill cancer cells by targeting the elongation factor-1A ternary complex” (eLife, 2015).

What was measured:
[1] = tested on: 50-kDa protein (eEF1A) in HEK293T cell lysates; test: Photo-affinity labeling of cell lysates with probe 5; type: binding; details: competitor 10 min before 5 (2 μM) 20 min, UV, TAMRA-azide click
Procedure: Lysates were prepared from HEK293T cells by washing a monolayer of cells once with ice-cold PBS and briefly freezing at –80°C. Lysis buffer (25 mM HEPES-KOH pH 7.3, 100 mM KOAc, 5 mM MgOAc2, 1 mM TCEP, 1 mM PMSF, Roche EDTA-free complete protease inhibitor) was added, and cells were detached with a cell scraper. Crude lysates were clarified by centrifugation (15 min at 14,000 rpm), protein was quantified by Bradford assay, and the protein concentration was brought to 1.5 mg/mL with lysis buffer. Lysates were processed for photo-labeling as described below. For samples treated with RNase A, RNase A (Roche) was added to lysates (10 mg/mL final concentration) and incubated for 20 min at RT.
Photo-labeling experiments were preformed essentially as described ([MacKinnon and Taunton, 2009]; [MacKinnon et al., 2007]). Reactions (100 μL) were treated with DMSO (1 μL) or competitor in DMSO as 100X stocks and incubated for 10 min at RT, then treated with photo-probe 5 and incubated for 20 min. Reactions were transferred to 96-well plates and irradiated with long-wave UV light (λmax = 355 nm, 1000 W, 90 s). […] Gels were scanned for TAMRA fluorescence (532 nm excitation laser, 568 nm emission measured with LPG filter) on a Typhoon FLA 9000 scanner (GE Life Sciences).

[2] = tested on: translation initiation/elongation in HeLa cells; test: Ribosome/polysome profiles; type: cell-based; details: 4 (5 μM) or cycloheximide (100 μg/mL) 15 min, then harringtonine 2 μg/mL 20 min
Procedure: HeLa cells grown to 80% confluence in 10-cm dishes were treated with DMSO or 4 (5 μM) for 20 min (Figure 2c, left panel), or were first treated with DMSO, 4 (5 μM), or cycloheximide (CHX, 100 μg/mL, Sigma, St. Louis, MO) for 15 min, followed by harringtonine (2 μg/mL, LKT Laboratories, St. Paul, MN) for 20 min. Following treatment, dishes were placed on ice, media aspirated, and cells were washed once with ice-cold PBS. Cells were scraped into 400 μL lysis buffer (20 mM Tris-HCl pH 7.5, 150 mM NaCl, 5 mM MgCl2, 1 mM DTT, 1% Triton X-100, 100 μg/mL CHX). Lysates were incubated for 10 min on ice, then passed through a 26-G needle 5 times. Samples were clarified by centrifugation at 14,000 rpm for 10 min at 4°C. Lysates were applied to 10–50% sucrose gradients (prepared in 20 mM Tris-HCl pH 7.5, 150 mM NaCl, 5 mM MgCl2, 1 mM DTT, 100 μg/mL CHX), followed by centrifugation at 35,000 rpm for 3 hr in a SW41 rotor at 4°C. Ribosome/polysome profiles were obtained by flowing the gradient top to bottom through an in-line spectrometer (254 nm, EM-1 Econo UV Monitor, BioRad, Hercules, CA).

[3] = tested on: HCT116 cells; test: HCT116 cell proliferation assay (alamarBlue, 72 hr); type: cell-based; details: read-out: effect on HCT116 cell proliferation (no effect up to)
Procedure: HCT116 cells (ATCC, Manassas, VA) were maintained in McCoy’s 5A media (Gibco, Grand Island, NY) supplemented with 10% fetal bovine serum (Axenia Biologix, Dixon, CA), 100 units/mL penicillin, and 100 ug/mL streptomycin (Gibco). Mutant HCT116 cells were obtained from Dominic Hoepfner ([Krastel et al., 2015]). HEK293T cells (ATCC) and HeLa cells (ATCC) were maintained in DMEM (Gibco) supplemented with 10% fetal bovine serum, 100 units/mL penicillin, and 100 μg/mL streptomycin. All other cell lines were obtained from the Cancer Cell Line Encyclopedia collection and were maintained as described ([Barretina et al., 2012]). All cell lines were tested for mycoplasma (Lonza, CH) before use and were SNP-typed to verify that their identity matched that of the originally procured sample. […]
Growing cells were briefly trypsinized and repeatedly pipetted to produce a homogenous cell suspension. […] Fluorescence intensity was measured hourly to determine the linear range for each assay (Ex 545 nm, Em 590 nm, Spectra Max M5, Molecular Devices, Sunnyvale, CA). Proliferation curves were generated by first normalizing fluorescence intensity in each well to the DMSO-treated plate average. Normalized fluorescence intensity was plotted in GraphPad Prism (GraphPad, La Jolla, CA), and IC50 values calculated from nonlinear regression curves. […]

[4] = tested on: adipogenesis; details: ref Shimokawa et al., 2008b; cited from earlier work
Procedure: Ternatin (1, Figure 1a) is an N-methylated cyclic heptapeptide that inhibits adipogenesis at low nanomolar concentrations (EC50 20 nM) and becomes cytotoxic at ten-fold higher concentrations ([Shimokawa et al., 2008a]). […] Motivating the current study, ternatin's molecular target and mechanism of action were completely unknown. While searching for cyclic peptides that, like ternatin, incorporate a β-hydroxy leucine, we found a paten ...

[5] = tested on: global protein synthesis in HCT116 cells; test: 35S-methionine incorporation; type: cell-based; details: 5 hr compound then 35S-Met 1 hr, autoradiography / scintillation counting after TCA precipitation (mean ± SEM, n = 3)
Procedure: HCT116 cells at 80% confluence in 12-well plates were incubated with compounds for 5 hr at 37°C. The cell culture media was replaced with methionine- and cysteine-free DMEM with the appropriate amount of compound. ^35S-methionine (PerkinElmer EasyTag, 40 μCi/well) was added and cells were incubated for 1 hr. Subsequently, media was aspirated and cells were washed twice with ice-cold phosphate-buffered saline (PBS). For samples analyzed by SDS-PAGE/autoradiography (Figure 2a), cells were lysed in buffer (PBS, 0.5% Triton X-100, Roche complete protease inhibitor cocktail, Roche, Indianapolis, IN) and protein content was normalized by Bradford assay. Dried gels were exposed to a storage phosphor screen (Amersham Biosciences, UK) overnight and scanned with a Typhoon imager (GE Life Sciences, Pittsburgh, PA). Bulk incorporation measurements (Figure 2b) were made by treating cells with cold 10% trichloroacetic acid (TCA, 0.5 mL) for 10 min. Precipitated monolayers were washed with 10% TCA (2 × 0.5 mL) and solubilized in 0.2 N NaOH (0.5 mL). Aliquots (100 μL) were diluted into liquid scintillation fluid and radioactivity was quantified by scintillation counting.

CO[C@H]1\C=C/C=C\C=C/C[C@H](OC(=O)[C@@H](C)NC(=O)C2CCCCC2)[C@H](C)[C@@H](O)/C(C)=C\CCc2cc(O)cc(c2O)NC(=O)C1 [ansatrienin B]
competition of labeling of the 50-kDa band by probe 5 [1]: abolished

C[C@@H]1C[C@@H]([C@H](O)CC2CC(=O)NC(=O)C2)C(=O)[C@@H](C)C1 [cycloheximide]
harringtonine-induced polysome depletion [2]: completely blocked

didemnin B
competition of labeling of the 50-kDa band by probe 5 [1]: abolished

ternatin-4-Ala [Compound 2]
IC50 [3]: > 10 µM | biological activity (adipogenesis assay) [4]: abolished biological activity | effect on global protein synthesis (35S-methionine labeling) [5]: no effect
